From patent US5972963A, “3-aryl-2-(1-substituted 4-piperidinyl)-1,1-dioxo-3H-benzo[D]isothiazoles and related compounds” (Hoechst Marion Roussel, Inc., priority 1997, dated 1999)
Counter-ions that a name gives are not always drawn. Like-named read-outs stand apart in the source and are kept apart here.

Assays:
[1] = system: dopamine (DA) uptake, rat striatal synaptosomes; experiment: Inhibition of ^3 H-Dopamine Uptake in Rat Striatal Synaptosomes; assay type: biochemical; conditions: at 3.16 μmn; head: whole brain synaptosomes, protocol: striatal synaptosomes
Method: Inhibition of ^3 H-Dopamine Uptake in Rat Striatal Synaptosomes
this assay is used to show differential drug effects on dopamine uptake versus nerepppinephrine uptake and to identify therapeutic agents for diseases where the potentiation of dopaminergic activity may be helpful (e.g. Parkinson's Disease).
(§1) A. Animals: Male CR Wistar rats (100-125 g).
3. Dopamine HCl is obtained from Sigma Chemical Co. A 0.1 mM stock solution is made up in 0.01 N HCl. This is used to dilute the specific activity of radiolabeled 5 HT.
4. 3,4-[8-^3 H(N)]-Dihydroxyphenylethylamine (Dopamine), specific activity 4-34 Ci/mmol is obtained from New England Nuclear.
The final desired concentration of ^3 H-DA in the assay is 50 nM. The dilution factor is 0.9. Therefore, the KHBB is made up to contain 55.5 nM [^3 H]-5 DA.
(§2) 5. For most assays, a 1 mM stock solution of the test compound is made up in a suitable solvent and serially diluted such that the final concentration in the assay ranges from 2×10^-8 to 2×10^-5 M. Seven concentrations are used for each assay. Higher or lower concentrations may be used depending on the potency of the compound.
(§3) Male Wistar rats are decapitated and the brain rapidly removed. Corpora striata are rapidly removed, weighed and homogenized in 9 volumes of ice-cold 0.32 M sucrose using a Potter-Elvejhem homogenizer. Homogenization should be done with 4-5 up and down strokes at medium speeds to minimize synaptosome lysis. The homogenate is centrifuged at 1000 g for 10 minutes at 0°-4° C. The supernatant (S) is decanted and is used for uptake experiments.
(§4) 20 μl Vehicle or appropriate drug concentration
(§5) Tubes are incubated at 37° C. under a 95% O2 /5% CO2 atmosphere for 5 minutes. For each assay, 3 tubes are incubated with 20 μl of vehicle at 0° C. in an ice bath. After incubation all tubes are immediately centrifuged at 4000 g for 10 minutes. The supernatant fluid is aspirated and the pellets dissolved by adding 1 ml of solubilizer (Triton X-100+50% EtOH, 1:4 v/v). The tubes are vigorously vortexed, decanted into scintillation vials, and counted in 10 ml of Liquiscint scintillation counting cocktail. Active uptake is the difference between cpm at 37° C. and 0° C. The percent inhibition at each drug concentration is the mean of three determinations. IC50 values are derived from log-probit analysis.

[2] = system: serotonin (5HT) uptake, rat whole brain synaptosomes; experiment: Inhibition of [^3 H]-Serotonin Uptake in Rat Whole Brain Synaptosomes; assay type: biochemical; conditions: at 3.16 μmn
Method: Inhibition of [^3 H]-Serotonin Uptake in Rat Whole Brain Synaptosomes
This assay is used a biochemical screen for compounds which block serotonin (5 HT) uptake, which may be useful as antidepressants and for the treatment of personality disorders such as obsessive compulsive disorder.
as §1
3. Serotonin creatinine SO4 is obtained from Sigma Chemical Co. A 0.1 mM stock solution is made up in 0.01 N HCl. This is used to dilute the specific activity of radiolabeled 5 HT.
4. 5-[1,2-^3 H(N)]-Hydroxytryptamine creatinine sulfate (Serotonin), specific activity 20-30 Ci/mmol is obtained from New England Nuclear.
The final desired concentration of ^3 H-5 HT in the assay is 50 nM. The dilution factor is 0.8. Therefore, the KHBB is made up to contain 62.5 nM [^3 H]-5 HT.
as §2, with “mM” for “mM stock”, “in” for “in a”
as §3, with “Whole brain minus cerebella is” for “Corpora striata are rapidly removed,”, “(S1)” for “(S)”
800 μl KHBB +[^3 H]-5 HT.
as §4, §5

[3] = system: norepinephrine (NE) uptake, rat whole brain synaptosomes; experiment: Inhibition of [^3 H]-Norepinephrine Uptake in Rat Whole Brain or Hypothalamic Synaptosomes; assay type: biochemical; conditions: at 3.16 μmn
Method: Inhibition of [^3 H]-Norepinephrine Uptake in Rat Whole Brain or Hypothalamic Synaptosomes
This assay is used as a biochemical screen for potential antidepressants which block norepinephrine uptake.
as §1
3. L(-)-Norepinephrine bitartrate is obtained from Sigma Chemical Co. A 0.1 mM stock solution is made up in 0.01 N HCl. This is used to dilute the specific activity of theradiolabeled NE.
4. Levo-[Ring-2,5,6-^3 H]-Norepinephrine (40-50 Ci/mmol) is obtained from New England Nuclear.
The final desired concentration of [^3 H]-NE in the assay is 50 nM. The dilution factor is 0.8. Therefore, the KHBB is made up to contain 62.5 nM [^3 H]-NE.
as §2
as §3, with “removed. Either whole brain minus cerebella or hypothalamus is” for “removed. Corpora striata are rapidly removed,”, “lysis. TH” for “lysis. The”, “supernatant (S1)” for “supernatant (S)”
as §4
Tubes are incubated at 37° C., under a 95% O2 /5% CO2 atmosphere for 5 minutes. For each assay, 3 tubes are incubated with 20 μl of vehicle at 0° C. in a ice bath. After incubation all tubes are immediately centrifuged at 4000 g for 10 minutes. The supernatant fluid is aspirated and the pellets dissolved by adding 1 ml of solubilizaer (Triton X-100+50% EtOH, 1:4 v/v). The tubes are vigorously vortexed, decanted into scientillation vials, and counted in 10 ml of Liquiscint scintillation countering cocktail. Active uptake is the difference between cpm at 37° C. and 0C. The percent inhibition at each drug concentration is the mean of three determinations IC50 values are derived from log-probit analysis.

dopamine (DA) uptake = conditions: cited from earlier work
5 HT uptakes sites = conditions: in vitro receptor binding, literature; cited from earlier work
[4] = system: norepinephrine (NE) uptake; conditions: literature; cited from earlier work
serotonin (5 HT) uptake = conditions: literature; cited from earlier work

Compound	% inhibition DA [1]	% inhibition 5HT [2]	% inhibition NE [3]	DA uptake inhibition (dopamine (DA) uptake; literature)	NE uptake inhibition [4]	other results
COc1cc(C(C)=O)ccc1OCCCN1CCC(N2C(c3ccc(Cl)cc3)c3ccccc3S2(=O)=O)CC1 (centres unmarked) [1-[4-(3-{4-[3-(4-Chlorophenyl)-1,1-dioxo-3H-benzo[d]isothiazol-2-yl]-1-piperidin-1-yl}-propoxy)-3-methoxyphenyl]-ethanone maleate]	67.94%	48.78%	55.23%	–	–	–
C[C@@H](N)Cc1ccccc1 [1-amphetamine]	–	–	–	no stereo selectivity for the inhibition of DA uptake	–	–
O=C(O)/C=C\C(=O)O.O=C1c2ccccc2C(=O)N1CCCN1CCC(N2C(c3ccc(Cl)cc3)c3ccccc3S2(=O)=O)CC1 (centres unmarked) [2-(3-{4-[3-(4-Chlorophenyl)-1,1-dioxo-3H-benzo[d]isothiazol-2-yl]piperidin-1-yl}propyl)-isoindol-1,3-dione maleate]	57.36%	29.02%	28.37%	–	–	–
O=C(O)/C=C\C(=O)O.O=S1(=O)c2ccccc2C(c2ccc(Cl)cc2)N1C1CCN(CCO)CC1 (centres unmarked) [2-{4-[3(4-Chlorophenyl)-1,1-dioxo-3H-benzo[d]isothiazol-2-yl]-piperidin-1-yl}-ethanol maleate]	18.71%	3.68%	8.71%	–	–	–
Cl.O=S1(=O)c2ccccc2C(c2ccc(F)cc2)N1C1CCNCC1 (centres unmarked) [3-(4-Fluorophenyl)-2-(4-piperidinyl)-2,3-dihydrobenzo[d]isothiazole-1,1-dioxide hydrochloride]	30.34%	37.92%	25.02%	–	–	–
CN(C)CCCN1c2ccccc2CCc2ccccc21 [[^3 H]-imipramine]	–	–	–	–	–	labelling of 5 HT uptake sites (5 HT uptakes sites): labels 5 HT uptakes sites
CC(NC(C)(C)C)C(=O)c1cccc(Cl)c1 (centres unmarked) [bupropion]	–	–	–	inhibit DA uptake	–	–
COC(=O)[C@H]1[C@@H](OC(=O)c2ccccc2)C[C@@H]2CC[C@H]1N2C [cocaine]	–	–	–	potently inhibited	potently inhibited	–
C[C@H](N)Cc1ccccc1 [d-amphetamine]	–	–	–	no stereo selectivity for the inhibition of DA uptake	–	–
CNCCCN1c2ccccc2CCc2ccccc21 [desipramine]	–	–	–	–	more active than the tertiary amines (e.g. imipramine)	–
C[C@@H]1O[C@@H](O[C@H]2C[C@@H](O)[C@]3(CO)[C@H]4[C@H](O)C[C@]5(C)[C@@H](C6=CC(=O)OC6)CC[C@]5(O)[C@@H]4CC[C@]3(O)C2)[C@H](O)[C@H](O)[C@H]1O [ouabain]	–	–	–	–	also inhibited	DA uptake inhibition (dopamine (DA) uptake): potently inhibited
CC(COc1ccccc1)N(CCCl)Cc1ccccc1 (centres unmarked) [phenoxybenzarrine]	–	–	–	–	also inhibited	–
CN(C)C/C=C(/c1ccc(Br)cc1)c1cccnc1 [zimelidine]	–	–	–	–	–	5 HT uptake inhibition (serotonin (5 HT) uptake): fairly selective effects on 5 HT uptakes
